Assay results from US7414110B2, “Human calcium channel compositions and methods” (Merck & Co., Inc., priority 1990, dated 2008).

How the values were obtained:
[1] = target: T1, α1B-1, α2b and β1-2 subunits (Homo sapiens, UniProt Q00975, Y99N); format: binding
T1 construct: contains, in pcDNA1, a full-length coding region encoding α1B-1; expressed in transfected cells; host or cells: HEK293 cells, transient

[2] = target: T2, α1B-1α2bβ1-2 (Homo sapiens, UniProt Q00975, Y99N); format: cell-based
T2 construct: contains, in pcDNA1, a full-length coding region encoding α1B-1; expressed in transfected cells; host or cells: HEK293 cells, transient
Target sequence in this assay (Q00975 whole entry Y99N): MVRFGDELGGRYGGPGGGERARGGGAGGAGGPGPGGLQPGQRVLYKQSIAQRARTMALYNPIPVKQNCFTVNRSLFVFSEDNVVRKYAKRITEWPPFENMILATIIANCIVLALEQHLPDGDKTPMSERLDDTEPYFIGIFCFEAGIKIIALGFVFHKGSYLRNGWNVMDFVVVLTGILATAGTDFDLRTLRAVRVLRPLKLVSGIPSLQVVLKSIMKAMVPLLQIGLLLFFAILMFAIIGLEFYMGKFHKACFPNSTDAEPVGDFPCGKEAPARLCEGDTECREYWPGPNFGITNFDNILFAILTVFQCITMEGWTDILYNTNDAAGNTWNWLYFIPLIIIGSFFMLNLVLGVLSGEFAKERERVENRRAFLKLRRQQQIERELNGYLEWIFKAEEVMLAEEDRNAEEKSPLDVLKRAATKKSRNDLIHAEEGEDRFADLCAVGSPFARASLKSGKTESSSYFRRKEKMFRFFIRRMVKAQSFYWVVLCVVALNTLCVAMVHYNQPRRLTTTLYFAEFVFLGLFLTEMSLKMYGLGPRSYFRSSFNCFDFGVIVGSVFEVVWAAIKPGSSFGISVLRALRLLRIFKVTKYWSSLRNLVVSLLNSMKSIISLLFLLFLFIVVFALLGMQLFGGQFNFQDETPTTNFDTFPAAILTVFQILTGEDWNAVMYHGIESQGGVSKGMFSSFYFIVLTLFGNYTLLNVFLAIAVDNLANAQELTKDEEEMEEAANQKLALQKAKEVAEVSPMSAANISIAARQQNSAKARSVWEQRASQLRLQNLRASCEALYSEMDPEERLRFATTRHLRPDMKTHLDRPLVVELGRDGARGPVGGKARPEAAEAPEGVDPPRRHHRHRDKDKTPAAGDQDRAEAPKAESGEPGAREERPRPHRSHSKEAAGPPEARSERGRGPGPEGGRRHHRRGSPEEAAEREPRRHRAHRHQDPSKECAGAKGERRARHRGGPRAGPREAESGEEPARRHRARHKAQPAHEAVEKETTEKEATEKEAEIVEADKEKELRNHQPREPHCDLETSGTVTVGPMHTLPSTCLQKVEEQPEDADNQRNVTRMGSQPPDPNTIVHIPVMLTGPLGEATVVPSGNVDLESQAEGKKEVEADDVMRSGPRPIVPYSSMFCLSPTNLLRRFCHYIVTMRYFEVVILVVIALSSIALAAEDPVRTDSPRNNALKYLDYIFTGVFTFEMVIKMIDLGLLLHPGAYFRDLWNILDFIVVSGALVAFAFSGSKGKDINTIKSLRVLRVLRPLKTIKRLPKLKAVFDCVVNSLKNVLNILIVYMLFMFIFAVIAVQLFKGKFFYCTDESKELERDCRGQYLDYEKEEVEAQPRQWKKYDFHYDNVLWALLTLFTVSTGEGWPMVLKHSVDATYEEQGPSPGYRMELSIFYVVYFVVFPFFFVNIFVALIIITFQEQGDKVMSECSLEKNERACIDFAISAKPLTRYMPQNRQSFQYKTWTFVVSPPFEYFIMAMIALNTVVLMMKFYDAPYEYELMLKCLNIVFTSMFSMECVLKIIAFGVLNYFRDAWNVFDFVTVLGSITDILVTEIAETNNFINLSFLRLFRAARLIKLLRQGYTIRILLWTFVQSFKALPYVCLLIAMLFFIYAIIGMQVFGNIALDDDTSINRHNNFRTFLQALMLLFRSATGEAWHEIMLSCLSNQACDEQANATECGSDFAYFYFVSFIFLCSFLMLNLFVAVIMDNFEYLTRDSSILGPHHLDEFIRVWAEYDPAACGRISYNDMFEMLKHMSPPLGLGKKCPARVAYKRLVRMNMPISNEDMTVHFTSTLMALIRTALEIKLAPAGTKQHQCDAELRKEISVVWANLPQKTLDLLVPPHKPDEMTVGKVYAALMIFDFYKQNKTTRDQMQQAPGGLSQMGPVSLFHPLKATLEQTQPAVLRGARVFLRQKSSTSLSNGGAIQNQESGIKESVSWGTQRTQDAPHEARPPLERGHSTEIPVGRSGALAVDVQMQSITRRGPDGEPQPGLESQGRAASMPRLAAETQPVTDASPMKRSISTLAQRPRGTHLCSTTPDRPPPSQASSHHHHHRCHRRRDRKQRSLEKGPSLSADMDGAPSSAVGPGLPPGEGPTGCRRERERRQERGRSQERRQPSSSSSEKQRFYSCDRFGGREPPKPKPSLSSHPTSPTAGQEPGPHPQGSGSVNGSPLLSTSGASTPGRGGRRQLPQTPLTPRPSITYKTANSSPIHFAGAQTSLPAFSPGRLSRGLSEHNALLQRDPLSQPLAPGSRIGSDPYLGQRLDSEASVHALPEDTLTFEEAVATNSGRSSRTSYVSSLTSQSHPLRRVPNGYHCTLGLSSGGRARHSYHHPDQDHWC
Target sequence in this assay (as listed by the source partner): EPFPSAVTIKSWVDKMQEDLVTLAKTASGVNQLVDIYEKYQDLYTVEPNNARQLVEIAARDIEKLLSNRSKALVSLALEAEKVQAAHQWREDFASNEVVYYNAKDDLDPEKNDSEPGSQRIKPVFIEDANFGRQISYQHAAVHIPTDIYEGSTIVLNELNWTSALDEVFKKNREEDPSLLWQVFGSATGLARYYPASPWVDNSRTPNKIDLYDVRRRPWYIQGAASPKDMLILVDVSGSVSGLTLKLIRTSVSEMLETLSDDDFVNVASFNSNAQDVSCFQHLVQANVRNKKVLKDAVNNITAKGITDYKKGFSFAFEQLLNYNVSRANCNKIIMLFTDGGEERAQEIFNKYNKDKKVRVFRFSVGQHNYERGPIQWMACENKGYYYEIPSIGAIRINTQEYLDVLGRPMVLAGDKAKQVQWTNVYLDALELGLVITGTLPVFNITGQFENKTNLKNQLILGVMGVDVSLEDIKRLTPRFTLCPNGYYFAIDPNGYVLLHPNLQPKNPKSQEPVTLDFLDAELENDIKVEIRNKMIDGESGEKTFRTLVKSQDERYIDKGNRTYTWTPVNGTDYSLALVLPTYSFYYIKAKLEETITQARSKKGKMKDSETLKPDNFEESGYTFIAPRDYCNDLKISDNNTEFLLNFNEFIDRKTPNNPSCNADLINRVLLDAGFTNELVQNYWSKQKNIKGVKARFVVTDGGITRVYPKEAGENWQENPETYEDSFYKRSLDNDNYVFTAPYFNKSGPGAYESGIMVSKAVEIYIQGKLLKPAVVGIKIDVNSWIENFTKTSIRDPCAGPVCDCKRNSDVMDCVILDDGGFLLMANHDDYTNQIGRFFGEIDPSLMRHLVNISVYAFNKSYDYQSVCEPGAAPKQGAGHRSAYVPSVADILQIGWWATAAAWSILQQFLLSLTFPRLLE
Target sequence in this assay (as listed by the source partner): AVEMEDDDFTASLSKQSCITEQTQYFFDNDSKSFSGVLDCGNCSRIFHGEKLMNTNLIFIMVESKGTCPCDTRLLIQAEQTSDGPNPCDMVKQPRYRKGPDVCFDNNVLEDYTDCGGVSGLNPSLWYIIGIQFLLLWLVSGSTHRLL
Target sequence in this assay (as listed by the source partner): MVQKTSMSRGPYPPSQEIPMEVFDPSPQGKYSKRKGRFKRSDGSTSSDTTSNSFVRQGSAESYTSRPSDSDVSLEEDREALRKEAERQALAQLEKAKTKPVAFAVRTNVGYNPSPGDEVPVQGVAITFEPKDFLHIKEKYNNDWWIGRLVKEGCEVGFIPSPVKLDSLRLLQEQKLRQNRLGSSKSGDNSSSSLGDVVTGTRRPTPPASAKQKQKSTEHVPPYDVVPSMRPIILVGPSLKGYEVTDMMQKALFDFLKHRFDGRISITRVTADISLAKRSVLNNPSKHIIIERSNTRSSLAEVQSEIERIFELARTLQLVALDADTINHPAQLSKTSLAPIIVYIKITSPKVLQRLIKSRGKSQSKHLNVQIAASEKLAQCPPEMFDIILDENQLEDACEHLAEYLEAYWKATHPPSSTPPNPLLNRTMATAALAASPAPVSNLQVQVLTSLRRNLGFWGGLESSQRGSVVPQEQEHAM

[3] = test system: cells transfected with only β-galactosidase-encoding DNA or α2bβ-encoding DNA
[4] = test system: untransfected HEK293 cells
[5] = test system: calcium channels containing α1E subunits; format: cell-based, human
[6] = target: T3, α1B-2β1-2 (Homo sapiens, UniProt Q00975, L2215R/Y99N); format: binding
T3 construct: Full-length DNA clones and corresponding RNA transcripts, encoding α1, including splice variants of α1A, α1D, α1B; expressed in transfected cells; host or cells: HEK293 cells, transient

[7] = target: T4, α1B-2α2b (Homo sapiens, UniProt Q00975, L2215R/Y99N); format: binding
T4 construct: Full-length DNA clones and corresponding RNA transcripts, encoding α1, including splice variants of α1A, α1D, α1B; expressed in transfected cells; host or cells: HEK293 cells, transient

[8] = target: T5, α1B-2α2bβ1-3 (Homo sapiens, UniProt Q00975, L2215R/Y99N); format: binding
T5 construct: Full-length DNA clones and corresponding RNA transcripts, encoding α1, including splice variants of α1A, α1D, α1B; expressed in transfected cells; host or cells: HEK293 cells, transient

[9] = target: T6, α1B-1 (Homo sapiens, UniProt Q00975, Y99N); format: binding
T6 construct: contains, in pcDNA1, a full-length coding region encoding α1B-1; expressed in transfected cells; host or cells: HEK293 cells, transient
T6 sequence (Q00975 whole entry Y99N): as the sequence (Q00975 whole entry Y99N) above

[10] = target: T7, α1B-1β1-3 (Homo sapiens, UniProt Q00975, Y99N); format: binding
T7 construct: contains, in pcDNA1, a full-length coding region encoding α1B-1; expressed in transfected cells; host or cells: HEK293 cells, transient

[11] = target: T8, α1B-1β1-2 (Homo sapiens, UniProt Q00975, Y99N); format: binding
T8 construct: contains, in pcDNA1, a full-length coding region encoding α1B-1; expressed in transfected cells; host or cells: HEK293 cells, transient

[12] = target: T9, α1B-1α2b (Homo sapiens, UniProt Q00975, Y99N); format: binding
T9 construct: contains, in pcDNA1, a full-length coding region encoding α1B-1; expressed in transfected cells; host or cells: HEK293 cells, transient
T9 sequence (Q00975 whole entry Y99N): as above

[13] = target: T10, α1B-2β1-3 (Homo sapiens, UniProt Q00975, L2215R/Y99N); format: binding
T10 construct: Full-length DNA clones and corresponding RNA transcripts, encoding α1, including splice variants of α1A, α1D, α1B; expressed in transfected cells; host or cells: HEK293 cells, transient

[14] = target: T11, α1B-2α2bβ1-2 (Homo sapiens, UniProt Q00975, L2215R/Y99N); format: binding
T11 construct: Full-length DNA clones and corresponding RNA transcripts, encoding α1, including splice variants of α1A, α1D, α1B; expressed in transfected cells; host or cells: HEK293 cells, transient

[15] = target: T12, α1B-1α2bβ1-3 (Homo sapiens, UniProt Q00975, Y99N); format: binding
T12 construct: contains, in pcDNA1, a full-length coding region encoding α1B-1; expressed in transfected cells; host or cells: HEK293 cells, transient

[16] = target: T13, α1B-2 (Homo sapiens, UniProt Q00975, L2215R/Y99N); format: binding
T13 construct: Full-length DNA clones and corresponding RNA transcripts, encoding α1, including splice variants of α1A, α1D, α1B; expressed in transfected cells; host or cells: HEK293 cells, transient

[17] = target: T2, α1B-1α2bβ1-2; format: binding
Target sequence in this assay (Q00975 whole entry Y99N): as above

[18] = test system: subunit combinations lacking either the α1B-1 or the α1B-2 subunit
[19] = test system: untransfected HEK 293 cells; assay: whole-cell patch clamp, untransfected HEK 293 cells; format: cell-based, human; details: with or without cAMP or forskolin
[20] = target: human neuronal calcium channel α1D and α2 subunits (Homo sapiens, UniProt Q01668, S1346F/Y1433H); assay: two-electrode voltage clamp, oöcytes injected with α1D and α2 transcripts; details: 15-30 nA currents; holding potential −90 mV
[21] = target: human neuronal calcium channel α1D and β1 subunits (Homo sapiens, UniProt Q01668, S1346F/Y1433H); assay: two-electrode voltage clamp, oöcytes injected with α1D and β1 transcripts; details: two of four oöcytes; compared with α1D, α2, β1 oöcytes
[22] = test system: human neuronal calcium channel α2 and β1 subunits; assay: two-electrode voltage clamp, oöcytes injected with α2 and β1 transcripts; details: n=11

T1 sequence (Q00975 whole entry Y99N): as above

C[C@@H](O)[C@@H]1NC(=O)[C@H](Cc2ccc(O)cc2)NC(=O)[C@@H]2C[C@@H](O)CN2C(=O)[C@H](CC(N)=O)NC(=O)[C@@H]2CSSC[C@@H]3NC(=O)[C@H](CO)NC(=O)[C@H](CO)NC(=O)CNC(=O)[C@@H]4C[C@@H](O)CN4C(=O)[C@H](CO)NC(=O)[C@H](CCCCN)NC(=O)[C@@H](N)CSSC[C@H](NC(=O)[C@H](CSSC[C@@H](C(=O)N[C@@H](Cc4ccc(O)cc4)C(N)=O)NC(=O)[C@H](CCCNC(=N)N)NC(=O)[C@H](CCCCN)NC1=O)NC(=O)[C@H](CC(N)=O)NC(=O)[C@H](Cc1ccc(O)cc1)NC(=O)[C@H](CO)NC(=O)[C@H]([C@@H](C)O)NC(=O)[C@@H]1C[C@@H](O)CN1C(=O)[C@H](CO)NC3=O)C(=O)N[C@@H](CCCNC(=N)N)C(=O)N[C@@H](CO)C(=O)N2 [ωCgTX]
binding capacity (Bmax) [1]: 28,710±11,950 sites per cell | block of activity [2]: blocked the activity completely | block of channels [2]: blocked irreversibly | time to complete block [2]: ≤ 2 min | specific binding [3]: no specific binding | detectable ω-CgTx GVIA binding sites [4]: do not express detectable

ω-Aga-IVA: funnel web spider toxin that blocks certain high voltage activated channels (KKKCIAKDYGRCKWGGTPCCRGRGCICSIMGTNCECKPRLIMEGLGLA)
sensitivity of channels containing α1E subunits [5]: sensitive

C[C@@H](O)[C@@H]1NC(=O)[C@H](Cc2ccc(O)cc2)NC(=O)[C@@H]2C[C@@H](O)CN2C(=O)[C@H](CC(N)=O)NC(=O)[C@@H]2CSSC[C@@H]3NC(=O)[C@H](CO)NC(=O)[C@H](CO)NC(=O)CNC(=O)[C@@H]4C[C@@H](O)CN4C(=O)[C@H](CO)NC(=O)[C@H](CCCCN)NC(=O)[C@@H](N)CSSC[C@H](NC(=O)[C@H](CSSC[C@@H](C(=O)N[C@@H](Cc4ccc(O)cc4)C(N)=O)NC(=O)[C@H](CCCNC(=N)N)NC(=O)[C@H](CCCCN)NC1=O)NC(=O)[C@H](CC(N)=O)NC(=O)[C@H](Cc1ccc(O)cc1)NC(=O)[C@H](CO)NC(=O)[C@H]([C@@H](C)O)NC(=O)[C@@H]1C[C@@H](O)CN1C(=O)[C@H](CO)NC3=O)C(=O)N[C@@H](CCCNC(=N)N)C(=O)N[C@@H](CO)C(=O)N2 [125I-ω-CgTx GVIA]
Bmax (sites/cell) [6]: 2,126 ± 412 sites/cell | Kd (pM) [7]: too low for reliable Scatchard analysis | Bmax (sites/cell) [8]: 37,652 ± 8,129 sites/cell | Bmax (sites/cell) [9]: 757 ± 128 sites/cell | number of binding sites [9]: approximately 750 binding sites/cell | Bmax (sites/cell) [10]: 8,729 ± 2,980 sites/cell | Bmax (sites/cell) [11]: 5,756 ± 2,163 sites/cell | Bmax (sites/cell) [12]: 2,256 ± 356 sites/cell | Bmax (sites/cell) [13]: 2,944 ± 1,168 sites/cell | Bmax (sites/cell) [14]: 19,371 ± 3,798 sites/cell | Bmax (sites/cell) [15]: 91,004 ± 37,654 sites/cell | Kd (pM) [16]: too low for reliable Scatchard analysis | Bmax (sites/cell) [17]: 45,324 ± 15,606 sites/cell | detectable 125I-ω-CgTx GVIA binding [18]: ≤ 600 sites/cell

COC(=O)C1=C(C)NC(C)=C([N+](=O)[O-])C1c1ccccc1C(F)(F)F (stereo not drawn) [Bay K 8644]
effects of Bay K 8644 on currents [19]: No such effects | effect on IBa ([2]; n=4): no discernable effect | response of barium currents to Bay K 8644 [20]: little or no response | sensitivity of Ba2+ currents to Bay K 8644 [21]: similar | sensitivity of inward barium currents to Bay K 8644 [22]: insensitive

[Cd] [cadmium]
blockage of IBa ([2]; 50 μM): rapid, complete, and reversible
